This assay has as its system MV-4-11 cells. Briefly: Gene expression microarray analysis (Affymetrix PrimeView) and GSEA. On the set-up: RFU PODN (11730768_x_at) / Fold change /veh PODN (11730768_x_at) / RFU LINC00158 (11744669_a_at) / Fold change /veh LINC00158 (11744669_a_at) / RFU DUSP10 (11751237_a_at) / Fold change /veh DUSP10 (11751237_a_at) / RFU ID3 (11757404_x_at) / Fold change /veh ID3 (11757404_x_at) / RFU PLEKHG5 (11737974_s_at) / Fold change /veh PLEKHG5 (11737974_s_at) / RFU LRRC4B (11730491_at) / Fold change /veh LRRC4B (11730491_at) / RFU GIMAP4 (11747438_a_at) / Fold change /veh GIMAP4 (11747438_a_at) / RFU KRT8 (11758183_x_at) / Fold change /veh KRT8 (11758183_x_at) / RFU CNN1 (11734310_a_at) / Fold change /veh CNN1 (11734310_a_at) / RFU VPS37D (11726825_at) / Fold change /veh VPS37D (11726825_at) / RFU C10orf10 (11716522_x_at) / Fold change /veh C10orf10 (11716522_x_at) / RFU KIR2DL2 /// KIR2DL4 /// KIR2DL5A /// KIR2DL5B /// KIR2DS1 /// KIR2DS2 /// KIR2DS3 /// KIR2DS4 /// KIR3DL3 /// KIR3DL3 /// KIR3DS1 (11738374_at) / Fold change /veh KIR2DL2 /// KIR2DL4 /// KIR2DL5A /// KIR2DL5B /// KIR2DS1 /// KIR2DS2 /// KIR2DS3 /// KIR2DS4 /// KIR3DL3 /// KIR3DL3 /// KIR3DS1 (11738374_at) / RFU C1QL1 (11718748_at) / Fold change /veh C1QL1 (11718748_at) / RFU TMPRSS4 (11747572_a_at) / Fold change /veh TMPRSS4 (11747572_a_at) / RFU HAMP (11756126_x_at) / Fold change /veh HAMP (11756126_x_at) / RFU RNFT2 (11725882_a_at) / Fold change /veh RNFT2 (11725882_a_at) / RFU NR4A2 (11747474_a_at) / Fold change /veh NR4A2 (11747474_a_at) / RFU ABCC12 (11746883_a_at) / Fold change /veh ABCC12 (11746883_a_at) / RFU TMEM136 (11760407_x_at) / Fold change /veh TMEM136 (11760407_x_at) / RFU CLDN22 /// WWC2 (11732394_at) / Fold change /veh CLDN22 /// WWC2 (11732394_at) / RFU HLA-DPB1 (11760878_x_at) / Fold change /veh HLA-DPB1 (11760878_x_at) / RFU SPINT1 (11716480_a_at) / Fold change /veh SPINT1 (11716480_a_at) / RFU GAP43 (11754022_s_at) / Fold change /veh GAP43 (11754022_s_at) / RFU A4GNT (11735810_at) / Fold change /veh A4GNT (11735810_at) / RFU PRB3 (11715151_x_at) / Fold change /veh PRB3 (11715151_x_at) / RFU TUBB4B (11761932_at) / Fold change /veh TUBB4B (11761932_at) / RFU CAPN14 (11732068_a_at) / Fold change /veh CAPN14 (11732068_a_at) / RFU TMCC2 (11721928_a_at) / Fold change /veh TMCC2 (11721928_a_at) / RFU IRGQ (11745062_a_at) / Fold change /veh IRGQ (11745062_a_at) / RFU FAM174B (11720279_a_at) / Fold change /veh FAM174B (11720279_a_at) / RFU TMPRSS4 (11748680_a_at) / Fold change /veh TMPRSS4 (11748680_a_at) / RFU FAM212B (11763350_a_at) / Fold change /veh FAM212B (11763350_a_at) / RFU PLEKHG5 (11743358_a_at) / Fold change /veh PLEKHG5 (11743358_a_at) / RFU ZSCAN30 (11745921_a_at) / Fold change /veh ZSCAN30 (11745921_a_at) / RFU CMKLR1 (11741424_a_at) / Fold change /veh CMKLR1 (11741424_a_at) / RFU LOC101060620 /// MAPK8IP1 (11723275_at) / Fold change /veh LOC101060620 /// MAPK8IP1 (11723275_at) / RFU SPTSSB (11747773_x_at) / Fold change /veh SPTSSB (11747773_x_at) / RFU PRSS12 (11739890_at) / Fold change /veh PRSS12 (11739890_at) / RFU BIN1 (11741810_x_at) / Fold change /veh BIN1 (11741810_x_at) / RFU WNT11 (11732464_a_at) / Fold change /veh WNT11 (11732464_a_at) / RFU C10orf10 (11716521_a_at) / Fold change /veh C10orf10 (11716521_a_at) / RFU C5orf56 (11738089_at) / Fold change /veh C5orf56 (11738089_at) / RFU CYB561 (11721691_x_at) / Fold change /veh CYB561 (11721691_x_at) / RFU ANKRD19P (11752326_a_at) / Fold change /veh ANKRD19P (11752326_a_at) / RFU OR2T12 /// OR2T33 /// OR2T8 (11738714_s_at) / Fold change /veh OR2T12 /// OR2T33 /// OR2T8 (11738714_s_at) / RFU VCAN (11748164_a_at) / Fold change /veh VCAN (11748164_a_at) / RFU JSRP1 (11732532_at) / Fold change /veh JSRP1 (11732532_at) / RFU KRTAP10-11 (11738290_x_at) / Fold change /veh KRTAP10-11 (11738290_x_at) / RFU MYO3A (11730013_a_at) / Fold change /veh MYO3A (11730013_a_at) / RFU EBF3 (11725865_a_at) / Fold change /veh EBF3 (11725865_a_at) / RFU CAMK2N1 (11719241_x_at) / Fold change /veh CAMK2N1 (11719241_x_at) / RFU C5orf56 (11738088_a_at) / Fold change /veh C5orf56 (11738088_a_at) / RFU OLFML3 (11715873_a_at) / Fold change /veh OLFML3 (11715873_a_at) / RFU LOC100653217 /// NTM (11731650_a_at) / Fold change /veh LOC100653217 /// NTM (11731650_a_at) / RFU MAPK11 (11762145_a_at) / Fold change /veh MAPK11 (11762145_a_at) / RFU FIZ1 (11724087_x_at) / Fold change /veh FIZ1 (11724087_x_at) / RFU OASL (11726364_x_at) / Fold change /veh OASL (11726364_x_at) / RFU SOX15 (11748057_x_at) / Fold change /veh SOX15 (11748057_x_at) / RFU CD79A (11719716_a_at) / Fold change /veh CD79A (11719716_a_at) / RFU HIST1H1D (11736915_at) / Fold change /veh HIST1H1D (11736915_at) / RFU CASKIN2 (11723855_a_at) / Fold change /veh CASKIN2 (11723855_a_at) / RFU LOC730098 (11760151_x_at) / Fold change /veh LOC730098 (11760151_x_at) / RFU OR4N2 (11742367_at) / Fold change /veh OR4N2 (11742367_at) / RFU PRRT2 (11749266_a_at) / Fold change /veh PRRT2 (11749266_a_at) / RFU SNX32 (11753110_a_at) / Fold change /veh SNX32 (11753110_a_at) / RFU CDHR5 (11726645_a_at) / Fold change /veh CDHR5 (11726645_a_at) / RFU RCAN1 (11760418_a_at) / Fold change /veh RCAN1 (11760418_a_at) / RFU FAM167A (11723789_a_at) / Fold change /veh FAM167A (11723789_a_at) / RFU FAM26E (11764081_at) / Fold change /veh FAM26E (11764081_at) / RFU ISYNA1 (11749810_s_at) / Fold change /veh ISYNA1 (11749810_s_at) / RFU ACY1 (11761880_at) / Fold change /veh ACY1 (11761880_at) / RFU 11764098_at / Fold change /veh 11764098_at / RFU SAMD14 (11745864_x_at) / Fold change /veh SAMD14 (11745864_x_at) / RFU NPB (11741838_a_at) / Fold change /veh NPB (11741838_a_at) / RFU TMPRSS6 (11731388_a_at) / Fold change /veh TMPRSS6 (11731388_a_at) / RFU KRTAP10-2 (11738614_at) / Fold change /veh KRTAP10-2 (11738614_at) / RFU ARHGAP8 /// PRR5-ARHGAP8 (11727945_x_at) / Fold change /veh ARHGAP8 /// PRR5-ARHGAP8 (11727945_x_at) / RFU KRTAP5-7 /// NADSYN1 (11734609_at) / Fold change /veh KRTAP5-7 /// NADSYN1 (11734609_at) / RFU RASL12 (11751679_a_at) / Fold change /veh RASL12 (11751679_a_at) / RFU CDKN2B (11736163_a_at) / Fold change /veh CDKN2B (11736163_a_at) / RFU PRF1 (11729649_at) / Fold change /veh PRF1 (11729649_at) / RFU, ZNF638 /// ZNF638-IT1 / Fold change vs veh, ZNF638 /// ZNF638-IT1 / RFU, PANK3 / Fold change vs veh, PANK3 / RFU, SH3YL1 / Fold change vs veh, SH3YL1 / RFU, ZEB2 / Fold change vs veh, ZEB2 / RFU, NRIP1 / Fold change vs veh, NRIP1 / RFU, PTTG1IP / Fold change vs veh, PTTG1IP / RFU, CAPN2 / Fold change vs veh, CAPN2 / RFU, MED14 / Fold change vs veh, MED14 / RFU, SNORA58 / Fold change vs veh, SNORA58 / RFU, C1orf63 / Fold change vs veh, C1orf63 / RFU, LRRFIP1 / Fold change vs veh, LRRFIP1 / RFU, NDUFAF7 / Fold change vs veh, NDUFAF7 / RFU, SLC12A2 / Fold change vs veh, SLC12A2 / RFU, IBTK / Fold change vs veh, IBTK / RFU, ESF1 / Fold change vs veh, ESF1 / Fold change vs veh, TMEM50B / RFU, TAOK1 / Fold change vs veh, TAOK1 / RFU, ACBD3 / Fold change vs veh, ACBD3 / RFU, TMA16 / Fold change vs veh, TMA16 / RFU, RWDD3 / Fold change vs veh, RWDD3 / RFU, BCAT1 / Fold change vs veh, BCAT1 / RFU, EDEM3 / Fold change vs veh, EDEM3 / RFU, TMEM33 / Fold change vs veh, TMEM33 / RFU, WDR75 / Fold change vs veh, WDR75 / RFU, AHCTF1 / Fold change vs veh, AHCTF1 / RFU, TFRC / Fold change vs veh, TFRC / RFU, ZDHHC17 / Fold change vs veh, ZDHHC17 / RFU, NOM1 / Fold change vs veh, NOM1 / RFU, ARL8B / Fold change vs veh, ARL8B / RFU, ZBTB11 / Fold change vs veh, ZBTB11 / RFU, TAMM41 / Fold change vs veh, TAMM41 / RFU, KIAA1704 /// LOC100996395 / Fold change vs veh, KIAA1704 /// LOC100996395 / RFU, ING1 / Fold change vs veh, ING1 / RFU, TRMT61B / Fold change vs veh, TRMT61B / RFU, FUBP3 / Fold change vs veh, FUBP3 / RFU, TP53 / Fold change vs veh, TP53 / RFU, TNKS2 / Fold change vs veh, TNKS2 / RFU, ZFP14 / Fold change vs veh, ZFP14 / RFU, ACTR2 / Fold change vs veh, ACTR2 / RFU, PPP3R1 / Fold change vs veh, PPP3R1 / RFU, PIK3R1 / Fold change vs veh, PIK3R1 / RFU, HNRNPA1 / Fold change vs veh, HNRNPA1 / RFU, RNF170 / Fold change vs veh, RNF170 / RFU, ZNF28 / Fold change vs veh, ZNF28 / RFU, RNGTT / Fold change vs veh, RNGTT / RFU, OGT / Fold change vs veh, OGT / RFU, BRD1 / Fold change vs veh, BRD1 / RFU, MARS / Fold change vs veh, MARS / RFU, ZNF655 / Fold change vs veh, ZNF655 / RFU, FAHD1 / Fold change vs veh, FAHD1 / RFU, BDP1 / Fold change vs veh, BDP1 / RFU, LRRCC1 / Fold change vs veh, LRRCC1 / RFU, ARID1A / Fold change vs veh, ARID1A / RFU, ZNF146 / Fold change vs veh, ZNF146 / RFU, ZNF330 / Fold change vs veh, ZNF330 / RFU, GPN3 / Fold change vs veh, GPN3 / RFU, C9orf123 / Fold change vs veh, C9orf123 / RFU, N4BP2L2 / Fold change vs veh, N4BP2L2 / RFU, ARFIP1 / Fold change vs veh, ARFIP1 / RFU, FAM179B / Fold change vs veh, FAM179B / RFU, BCL10 / Fold change vs veh, BCL10 / RFU, UHRF1BP1L / Fold change vs veh, UHRF1BP1L / RFU, BET1 / Fold change vs veh, BET1 / RFU, CNOT2 / Fold change vs veh, CNOT2 / RFU, ZNF268 / Fold change vs veh, ZNF268 / Fold change vs veh, ZNF507 / RFU, DGCR2 / Fold change vs veh, DGCR2 / RFU, WDSUB1 / Fold change vs veh, WDSUB1 / Fold change vs veh, HSP90B1 /// MIR3652 / RFU, ADSS / Fold change vs veh, ADSS / RFU, GK / Fold change vs veh, GK / RFU, ZNF148 / Fold change vs veh, ZNF148 / RFU, TAF9 / Fold change vs veh, TAF9 / RFU, SLC1A5 / Fold change vs veh, SLC1A5 / RFU, SLMO2 / Fold change vs veh, SLMO2 / RFU, ABCC4 / Fold change vs veh, ABCC4 / RFU, LOC101060439 /// RAP1B / Fold change vs veh, LOC101060439 /// RAP1B / RFU, RFX7 / Fold change vs veh, RFX7 / RFU, GTPBP10 / Fold change vs veh, GTPBP10 / RFU, CNEP1R1 / Fold change vs veh, CNEP1R1 / RFU, BIVM-ERCC5 /// ERCC5 / Fold change vs veh, BIVM-ERCC5 /// ERCC5 / RFU, ILF3 / Fold change vs veh, ILF3 / RFU 11762660_at / Fold change /veh 11762660_at / RFU VCAN (11757783_s_at) / Fold change /veh VCAN (11757783_s_at) / RFU DDX43 (11728927_at) / Fold change /veh DDX43 (11728927_at) / RFU KRT8 (11758188_x_at) / Fold change /veh KRT8 (11758188_x_at) / RFU NKD1 (11759106_at) / Fold change /veh NKD1 (11759106_at) / RFU SRD5A1 (11742802_a_at) / Fold change /veh SRD5A1 (11742802_a_at) / RFU TPSAB1 /// TPSB2 (11721975_s_at) / Fold change /veh TPSAB1 /// TPSB2 (11721975_s_at) / RFU GSTM3 (11746129_a_at) / Fold change /veh GSTM3 (11746129_a_at) / RFU IL23R (11737362_x_at) / Fold change /veh IL23R (11737362_x_at) / RFU TMEM51 (11727254_a_at) / Fold change /veh TMEM51 (11727254_a_at) / RFU PIWIL2 (11732686_x_at) / Fold change /veh PIWIL2 (11732686_x_at) / RFU ORM1 (11744905_x_at) / Fold change /veh ORM1 (11744905_x_at) / RFU CCDC152 (11743942_at) / Fold change /veh CCDC152 (11743942_at) / RFU ECM1 (11717891_a_at) / Fold change /veh ECM1 (11717891_a_at) / RFU IL23R (11748794_a_at) / Fold change /veh IL23R (11748794_a_at) / RFU TNFAIP8L3 (11732012_x_at) / Fold change /veh TNFAIP8L3 (11732012_x_at) / RFU MBOAT4 (11741988_at) / Fold change /veh MBOAT4 (11741988_at) / RFU 11764193_at / Fold change /veh 11764193_at / RFU TMEM53 (11763286_at) / Fold change /veh TMEM53 (11763286_at) / RFU MAGEB2 (11727129_at) / Fold change /veh MAGEB2 (11727129_at) / RFU TMEM200A (11744735_a_at) / Fold change /veh TMEM200A (11744735_a_at) / RFU CCDC152 (11751479_a_at) / Fold change /veh CCDC152 (11751479_a_at) / RFU FAM211A (11726209_a_at) / Fold change /veh FAM211A (11726209_a_at) / RFU RGS16 (11746705_a_at) / Fold change /veh RGS16 (11746705_a_at) / RFU VCAN (11755009_s_at) / Fold change /veh VCAN (11755009_s_at) / RFU RHOB (11743442_s_at) / Fold change /veh RHOB (11743442_s_at) / RFU RGS16 (11720943_a_at) / Fold change /veh RGS16 (11720943_a_at) / RFU RGS16 (11720944_at) / Fold change /veh RGS16 (11720944_at) / RFU, VPS4B / Fold change vs veh, VPS4B / RFU, CREB1 / Fold change vs veh, CREB1 / RFU, DNAJC13 / Fold change vs veh, DNAJC13 / RFU, GNAQ / Fold change vs veh, GNAQ / RFU, CDK5R1 / Fold change vs veh, CDK5R1 / RFU, ZRANB3 / Fold change vs veh, ZRANB3 / RFU, CUL4A / Fold change vs veh, CUL4A / RFU, CCNY / Fold change vs veh, CCNY / RFU, UFL1 / Fold change vs veh, UFL1 / RFU, COG3 / Fold change vs veh, COG3 / RFU, DIAPH2 / Fold change vs veh, DIAPH2 / RFU, SKA2 / Fold change vs veh, SKA2 / RFU, AFF3 / Fold change vs veh, AFF3 / RFU, LMF1 / Fold change vs veh, LMF1 / RFU, IPO11 / Fold change vs veh, IPO11 / RFU, DFFB / Fold change vs veh, DFFB / RFU, FOXP1 / Fold change vs veh, FOXP1 / RFU, CARD8 / Fold change vs veh, CARD8 / RFU, STRN3 / Fold change vs veh, STRN3 / RFU, ADK / Fold change vs veh, ADK / RFU, RASSF2 / Fold change vs veh, RASSF2 / RFU, WIPF1 / Fold change vs veh, WIPF1 / RFU, LARP1B / Fold change vs veh, LARP1B / RFU, RASA1 / Fold change vs veh, RASA1 / RFU, RB1 / Fold change vs veh, RB1 / RFU, PPFIA1 / Fold change vs veh, PPFIA1 / RFU, MAT2A / Fold change vs veh, MAT2A / RFU, CCT5 / Fold change vs veh, CCT5 / RFU, WDR92 / Fold change vs veh, WDR92 / RFU, CUX1 / Fold change vs veh, CUX1 / RFU, TTC7A / Fold change vs veh, TTC7A / RFU, TMEM135 / Fold change vs veh, TMEM135 / RFU, DEPTOR / Fold change vs veh, DEPTOR / RFU, CPM / Fold change vs veh, CPM / RFU, DNAJB6 / Fold change vs veh, DNAJB6 / RFU, CACNA2D3 / Fold change vs veh, CACNA2D3 / RFU, DTX4 / Fold change vs veh, DTX4 / RFU, TFCP2 / Fold change vs veh, TFCP2 / RFU, GMCL1 /// GMCL1P1 / Fold change vs veh, GMCL1 /// GMCL1P1 / RFU, AEBP2 / Fold change vs veh, AEBP2 / RFU, SNHG1 /// SNORD22 /// SNORD25 /// SNORD26 /// SNORD27 /// SNORD28 /// SNORD29 /// SNORD31 / Fold change vs veh, SNHG1 /// SNORD22 /// SNORD25 /// SNORD26 /// SNORD27 /// SNORD28 /// SNORD29 /// SNORD31 / Fold change (Aza/veh), C12orf56 (ProbeSet 11735607_a_at) / Fold change (ACY-1035/veh), C12orf56 (ProbeSet 11735607_a_at) / Fold change (Aza/veh), FGFR1OP (ProbeSet 11751329_s_at) / Fold change (ACY-1035/veh), FGFR1OP (ProbeSet 11751329_s_at) / Fold change (Aza/veh), VPS36 (ProbeSet 11739960_a_at) / Fold change (ACY-1035/veh), VPS36 (ProbeSet 11739960_a_at) / RFU SYPL1 (11715823_x_at) / Fold change /veh SYPL1 (11715823_x_at) / RFU IGFBP7 (11715501_s_at) / Fold change /veh IGFBP7 (11715501_s_at) / RFU REEP3 (11722064_at) / Fold change /veh REEP3 (11722064_at) / RFU IGLL1 (11728026_x_at) / Fold change /veh IGLL1 (11728026_x_at): dose or concentration left out as unconfirmed. The assay is classed as cell-based, human. The conditions noted are these: MV-4-11 cells, 48 hours.

The text below walks through data of paper PMC5218480 (PLoS ONE, 2017).

For `Nc1ccc(-c2cccs2)cc1NC(=O)c1ccc2c(c1)cc(C1CC1)n2CCN1CCOCC1` [ACY-1035], the “Fold change /veh CAPN14 (11732068_a_at)” value came out at 1.08.
